Data: US20160219829A1, “ANTI-ODOR MATERIAL FOR ANIMAL LITTERS USING PHOSPHOROTRIAMIDES IN POWDER FORM” (priority 2013, published 2016)

Target: T1, urease (Canavalia ensiformis, UniProt P07374)
T1 construct: purchased Sigma
Format: biochemical
Method: To simulate soiled anti-odor material, urea/urease solution was prepared and added to the anti-odor material.
In the same beaker, weight 50 g of demineralised water.
In a small plastic cup, weight 0.012 g of urease. Then empty the plastic cup in the beaker containing the water and rinse it with the water/urea solution.
Fill a standard volume with anti-odor material (litter+n-BTPT powder) and equalize the surface. Empty the standard volume in a plastic bowl used for analysis.
Empty slowly the urea/urease solution on the anti-odor material while making sure that no solution comes in contact with sides of the plastic bowl.
Put a cover on the plastic bowl (the cover having a hole).
Insert the tube of a Gastec pump (GV-100S) in the hole of the cover.
Note the start time of the test and take a reading of the tube every 30 minutes for the first 7 hours.
Take a reading at 24 and 48 hour.
Dosimetry tests were performed according to the methodology above. The results were taken after 48 h of testing.
Dosimetry tests were then realised to evaluate the performance of the litter samples by measuring the ammonia release (in ppm). More particularly, performances of the odor-retardant material with n-BTPT in a powder form, in melted phase or coating a particulate support could be evaluated.

T1 sequence (P07374 whole entry, looked up): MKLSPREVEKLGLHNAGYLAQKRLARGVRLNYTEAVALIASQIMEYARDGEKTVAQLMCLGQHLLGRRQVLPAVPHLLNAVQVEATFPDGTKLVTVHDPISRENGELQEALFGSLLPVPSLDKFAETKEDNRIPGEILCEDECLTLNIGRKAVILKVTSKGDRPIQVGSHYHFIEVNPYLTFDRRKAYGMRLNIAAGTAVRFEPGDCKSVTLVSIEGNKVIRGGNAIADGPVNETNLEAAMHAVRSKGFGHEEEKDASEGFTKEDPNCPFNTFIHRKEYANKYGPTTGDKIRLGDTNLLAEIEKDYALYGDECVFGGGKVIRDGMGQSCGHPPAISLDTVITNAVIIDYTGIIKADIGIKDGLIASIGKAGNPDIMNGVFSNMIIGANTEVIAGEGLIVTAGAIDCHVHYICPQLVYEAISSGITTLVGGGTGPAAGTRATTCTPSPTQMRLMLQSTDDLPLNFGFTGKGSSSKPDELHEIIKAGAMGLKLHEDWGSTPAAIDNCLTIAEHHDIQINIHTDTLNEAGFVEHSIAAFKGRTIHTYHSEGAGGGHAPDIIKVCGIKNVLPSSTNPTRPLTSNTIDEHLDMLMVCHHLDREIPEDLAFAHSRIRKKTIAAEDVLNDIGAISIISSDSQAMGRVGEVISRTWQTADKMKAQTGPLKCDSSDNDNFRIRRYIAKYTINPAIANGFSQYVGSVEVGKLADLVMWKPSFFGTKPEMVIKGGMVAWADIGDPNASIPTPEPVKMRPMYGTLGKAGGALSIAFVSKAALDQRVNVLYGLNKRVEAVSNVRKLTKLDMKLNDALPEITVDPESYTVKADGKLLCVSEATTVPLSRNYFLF

## CCCCNP(N)(N)=S [n-BTPT, N-(n-butyl)thiophosphoric triamide]
Final concentration 350 g/MT n-BTPT in litter, bentonite absorptive substrate
  Ammonia release (48 h): 25 ppm
n-BTPT concentration of 0.03%, grinded powder in litter, 48 h
  ammonia release reaches a maximum (FIG. 1): 62%
